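Results reflect a 48-hour exposure of cells in 96-well plates to compound at five concentrations. Abbreviation: GI50, concentration required for 50% inhibition of growth.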 Calls of active or inactive are those of the source. No stated cut-off is given here; in the data, active = GI50 up to about 1.1 µM and inactive = higher.
Key:
Experiment in all cases: NCI tumour cell line growth inhibition, 48 h
A498 = test system: A498
A549 = test system: A549
ACHN = test system: ACHN
BT-549 = test system: BT-549
DU-145 = test system: DU-145
EKVX = test system: EKVX
KM12 = test system: KM12
LOX IMVI = test system: LOX IMVI
MDA-MB-435 = test system: MDA-MB-435
MDA-N = test system: MDA-N
NCI-H226 = test system: NCI-H226
NCI-H460 = test system: NCI-H460
NCI-H522 = test system: NCI-H522
SF-268 = test system: SF-268
SF-295 = test system: SF-295
SK-OV-3 = test system: SK-OV-3
SNB-75 = test system: SNB-75
T47D = test system: T47D
HOP-92 = test system: HOP-92

| Structure (SMILES) | GI50 (A498) | GI50 (A549) | GI50 (ACHN) | GI50 (BT-549) | GI50 (DU-145) | GI50 (EKVX) | GI50 (KM12) | GI50 (LOX IMVI) | GI50 (MDA-MB-435) | GI50 (MDA-N) | GI50 (NCI-H226) | GI50 (NCI-H460) | GI50 (NCI-H522) | GI50 (SF-268) | GI50 (SF-295) | GI50 (SK-OV-3) | GI50 (SNB-75) | GI50 (T47D) | GI50 (HOP-92) |
| --- | --- | --- | --- | --- | --- | --- | --- | --- | --- | --- | --- | --- | --- | --- | --- | --- | --- | --- | --- |
| CN1CCC/C1=C1\C(=O)c2cccn2C1=O | > 100 µM (inactive) | > 100 µM (inactive) | > 100 µM (inactive) | > 100 µM (inactive) | > 100 µM (inactive) | > 100 µM (inactive) | > 100 µM (inactive) | > 100 µM (inactive) | > 100 µM (inactive) | > 100 µM (inactive) | > 100 µM (inactive) | > 100 µM (inactive) | > 100 µM (inactive) | > 100 µM (inactive) | > 100 µM (inactive) | > 100 µM (inactive) | > 100 µM (inactive) | > 100 µM (inactive) |  |
| CC(OC(=O)C(CC(=O)OC(C)(C)C)NC(=O)OC(C)(C)C)C(=O)OCc1ccccc1 (stereo not drawn) |  | > 100 µM (inactive) | > 100 µM (inactive) | > 100 µM (inactive) | > 100 µM (inactive) | > 100 µM (inactive) | > 100 µM (inactive) | > 100 µM (inactive) | > 100 µM (inactive) | > 100 µM (inactive) | > 100 µM (inactive) | > 100 µM (inactive) | > 100 µM (inactive) | > 100 µM (inactive) | > 100 µM (inactive) | > 100 µM (inactive) | > 100 µM (inactive) | > 100 µM (inactive) |  |
| N=C(N)C1CN(CCc2c[nH]c3ccccc23)C(=O)NC1=O (stereo not drawn) | > 100 µM (inactive) | > 100 µM (inactive) | > 100 µM (inactive) | > 100 µM (inactive) | > 100 µM (inactive) | > 100 µM (inactive) |  | > 100 µM (inactive) | > 100 µM (inactive) | > 100 µM (inactive) | > 100 µM (inactive) | > 100 µM (inactive) |  | > 100 µM (inactive) | > 100 µM (inactive) | > 100 µM (inactive) | > 100 µM (inactive) | > 100 µM (inactive) | > 100 µM (inactive) |
| CC[C@H](C)C1=C(O)[N@+]2([O-])Oc3ccc(-c4c(O)c(O)c(-c5ccc(O)cc5)c(OC(C)=O)c4OC(C)=O)cc3O[C@]2([C@@H](C)CC)C(=O)N1O | 13.9 µM (inactive) | 16.7 µM (inactive) | 22.5 µM (inactive) | 25.6 µM (inactive) | 33.3 µM (inactive) | > 50 µM (inactive) | 33.7 µM (inactive) | 22.4 µM (inactive) | 28.1 µM (inactive) | 29.2 µM (inactive) |  | 19 µM (inactive) | 7.85 µM (inactive) | 27.5 µM (inactive) | 24.8 µM (inactive) | 15.9 µM (inactive) |  | > 50 µM (inactive) | 6.52 µM (inactive) |
| O=P1(C(O)c2ccccc2)N(Cc2ccccc2)[C@@H]2CCCC[C@H]2N1Cc1ccccc1 (stereo partly drawn) |  | 28.8 µM (inactive) | 30.8 µM (inactive) | 50.2 µM (inactive) | 35 µM (inactive) | 30.5 µM (inactive) | 37.3 µM (inactive) | 17.5 µM (inactive) | 23.2 µM (inactive) | 31.9 µM (inactive) | 24.8 µM (inactive) | 30.2 µM (inactive) | 20.7 µM (inactive) | 25.6 µM (inactive) | 23.6 µM (inactive) | 58.2 µM (inactive) | 18.4 µM (inactive) | 21.9 µM (inactive) |  |
| CN1CCN(Cc2nc3c(s2)CCc2sccc2-3)CC1 | 12.7 µM (inactive) | > 100 µM (inactive) | > 100 µM (inactive) | > 100 µM (inactive) | > 100 µM (inactive) | > 100 µM (inactive) | > 100 µM (inactive) |  | 54.2 µM (inactive) | 48.6 µM (inactive) | > 100 µM (inactive) | > 100 µM (inactive) | > 100 µM (inactive) | 82.6 µM (inactive) | 73.1 µM (inactive) | > 100 µM (inactive) | 75.7 µM (inactive) | 41.6 µM (inactive) |  |
| Cc1cc(Cl)nc2nc(Cl)c(N)cc12 |  | 13.5 µM (inactive) | 5.38 µM (inactive) | 14.6 µM (inactive) | 7.03 µM (inactive) | 3.48 µM (inactive) | 5.32 µM (inactive) | 1.91 µM (inactive) | 2.22 µM (inactive) | 1.88 µM (inactive) | 21.5 µM (inactive) | 2.38 µM (inactive) | 4.53 µM (inactive) | 2.29 µM (inactive) | 12.3 µM (inactive) | 21.3 µM (inactive) | 10.6 µM (inactive) | 3.21 µM (inactive) | 2.18 µM (inactive) |
| O=C(NCCC1([N+](=O)[O-])CCN(C(=O)c2ccccc2)CC1)c1ccccc1 | > 100 µM (inactive) | > 100 µM (inactive) | > 100 µM (inactive) | > 100 µM (inactive) | > 100 µM (inactive) | > 100 µM (inactive) | > 100 µM (inactive) |  | 26.7 µM (inactive) | 47.1 µM (inactive) | > 100 µM (inactive) | 35.3 µM (inactive) | > 100 µM (inactive) | > 100 µM (inactive) | > 100 µM (inactive) | > 100 µM (inactive) |  | > 100 µM (inactive) | < 0.01 µM (active) |
